Measured values as given in US9486507B2, “Pro-coagulant compounds and methods of use thereof” (priority 2011, dated 2016).

Assays:
FIXa = FIXa (Homo sapiens, UniProt P00740); assay: FXa generation assay with human FIXa; format: biochemical; design: purchased Haematologic Technologies; conditions: class symbols
Source text: FXa generation was utilized to assess the capability of the compounds of the present disclosure to enhance the catalytic activities of FIXa and/or FVIIa.
To measure the catalytic activity of FIXa, FIXa was mixed with FX and phospholipids in the presence of calcium chloride. Under these conditions FIXa cleaves the zymogen FX into the active form FXa.
The generation of FXa is monitored by the change in absorbance of the reaction at 405 nm due to the presence of a cleavable FXa chromogenic substrate (S-2765; Z-D-Arg-Gly-Arg-pNA; cleavage of p-nitroaniline). […] The kit contains all the FXa generation components, however, FIXa and FX obtained from this kit are from a bovine origin and were replaced with purified human FIXa or human FVIIa and human FX (Haematologic Technologies).
The assay was also modified to enhance the screening throughput. Instead of the sequential addition, all the assay components were mixed and added simultaneously to the purified compound to be assayed. A 125 μl reaction mix of the assay components was prepared in the buffer supplied by the manufacturer (50 mM Tris 7.3, and 1% BSA). […] The reaction mix (125 ul) was then added to 25 ul of compound diluted in water in a Costar-3651 flat bottom 96-well plate. […] The absorbance was monitored over a period of 1 hour at 405 nm using a plate reader (Synergy 2, Biotek).
The 405 nm absorbance data were then analyzed to obtain the slope of the first derivative which reflects the rate of change in absorbance. The first derivative slope data for each compound concentration were plotted against the compound concentration and fitted to a four-parameter equation to obtain the EC50 and Vmax values for each compound tested.

[1] = system: FVIII deficient human plasma; assay: Thrombin generation assay (TGA) in FVIII-deficient plasma; format: biochemical; design: key to Thrombin Above Baseline (nM): 1-10 nM (1) or 1-29 nM (2) (+); 11-20 nM (1) or 30-59 nM (2) (++); 21-30 nM (1) or 60-90 nM (2) (+++); >30 nM (1) or >90 nM (2) (++++); At or about baseline (−)
platelets = assay: Platelet aggregation (aggregometer); format: cell-based; conditions: compound 5 about 30 μM; compound 22 10 μM and 30 μM
Source text: ADP was used as a positive control for platelet aggregation.

[2] = system: FVIII deficient human plasma; assay: Rotational thromboelastometry (ROTEM) in FVIII-deficient human plasma; format: biochemical; conditions: human HemA plasma (HRF)
Experimental: Compounds of the present disclosure were tested by rotational thromboelastometry to evaluate coagulation parameters such as clotting time (CT), α-angle, clot formation time (CFT), maximum clot firmness (MCF). Briefly, lyophilized and citrated FVIII deficient human plasma (Siemens) was reconstituted with 1 mL of distilled water, allowed to stand for 20 min at RT and mixed well before use. Alternatively, an aliquot of citrated (non-lyophilized) FVIII deficient human plasma (HRF, George King, Precision Biologics, or real-time donors) was thawed for 10 min in a 37° C. water bath and when needed centrifuged at 2800 g for 5 min at 25° C. FVIII deficient plasma was spiked with lyophilized platelets (Helena Laboratories, final concentration 0.5×10^8 cells/ml) and compounds, FVIII, or both compound and FVIII. Dilutions of compounds of the present disclosure and controls, such as FVIII, were prepared in PBS (—Ca, —Mg). Next, 300 μl of the spiked plasma was transferred to a ROTEM cup already containing 20 μl of StarTEM (concentrated calcium chloride solution) and 20 μl of lipidated TF (American Diagnostica, final concentration 10 fM) or Kaolin (Sigma-Aldrich, final concentration 0.4 μg/ml) and recording was initiated. The cups were maintained at 37° C. during the testing.

[3] = FXa generation assay, 10 nM hFIXa, 100 nM hFX
[4] = Precision Biologics FVIII-deficient plasma (2), second Baseline (2) series, 2.5 μM
[5] = Precision Biologics FVIII-deficient plasma (2), second Baseline (2) series, 5 μM
[6] = Precision Biologics FVIII-deficient plasma (2), second Baseline (2) series, 10 μM
[7] = Precision Biologics FVIII-deficient plasma (2), first Baseline (2) series, 2.5 μM
[8] = Precision Biologics FVIII-deficient plasma (2), first Baseline (2) series, 5 μM
[9] = Precision Biologics FVIII-deficient plasma (2), first Baseline (2) series, 10 μM

Chain of FIXa (P00740 47-191 limits assumed): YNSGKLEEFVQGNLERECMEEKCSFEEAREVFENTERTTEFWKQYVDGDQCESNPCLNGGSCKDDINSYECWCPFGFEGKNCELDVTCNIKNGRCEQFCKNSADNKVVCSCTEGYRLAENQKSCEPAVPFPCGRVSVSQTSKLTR
Chain of FIXa (P00740 227-461 limits assumed): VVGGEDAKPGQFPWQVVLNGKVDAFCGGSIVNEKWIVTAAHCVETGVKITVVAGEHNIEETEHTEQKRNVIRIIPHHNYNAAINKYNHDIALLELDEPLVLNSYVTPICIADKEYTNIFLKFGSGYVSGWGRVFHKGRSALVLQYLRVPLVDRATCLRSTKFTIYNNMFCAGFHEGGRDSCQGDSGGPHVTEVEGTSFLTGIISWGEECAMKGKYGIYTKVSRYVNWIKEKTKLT

Substance	Vmax (FIXa; [3])	Thrombin Above Baseline (nM) [1, 7]	Thrombin Above Baseline (nM) [1, 8]	Thrombin Above Baseline (nM) [1, 9]	other results
k-MeLeu-TCLASYCWLF					Vmax (FIXa; FXa generation assay using human FIXa): (++++) ((++++)>3); Vmax (FIXa; FXa generation assay, 10 nM hFIXa, 100 nM hFX, listed as SEQ ID NO: 232): (+++) ((+++)>2); Thrombin Above Baseline (nM) ([1]; HRF FVIII-deficient plasma (1), 2.5 μM): + (1-10 nM (1) or 1-29 nM (2) (+)); Thrombin Above Baseline (nM) ([1]; HRF FVIII-deficient plasma (1), 5 μM): −; Thrombin Above Baseline (nM) ([1]; HRF FVIII-deficient plasma (1), 10 μM): −; Thrombin Above Baseline (nM) ([1]; HRF FVIII-deficient plasma (1), 20 μM): + (1-10 nM (1) or 1-29 nM (2) (+))
PRIRTVSPGSRSASGKSTCLASYCWLFWTGIA	(++++) ((++++)>3)				Thrombin Above Baseline (nM) [1, 4]: ++ (11-20 nM (1) or 30-59 nM (2) (++)); Thrombin Above Baseline (nM) [1, 5]: +++ (21-30 nM (1) or 60-90 nM (2) (+++)); Thrombin Above Baseline (nM) [1, 6]: ++++ (>30 nM (1) or >90 nM (2) (++++)); Thrombin Above Baseline (nM) ([1]; Precision Biologics FVIII-deficient plasma (2), second Baseline (2) series, 20 μM): ++++ (>30 nM (1) or >90 nM (2) (++++))
PRIRTVGPGSRSASGKSTCLASYCWLFWTGIA [Compound 22]					induction of platelet aggregation (platelets): did also not induce platelet aggregation
PRIRSVGPGSRSASGKLTCLASYCWLFWTGIA	(++++) ((++++)>3)	++ (11-20 nM (1) or 30-59 nM (2) (++))	+++ (21-30 nM (1) or 60-90 nM (2) (+++))	+++ (21-30 nM (1) or 60-90 nM (2) (+++))	
PRSRTVGPGSRSASGKLTCLASYCWLFWTGIA	(++++) ((++++)>3)	++ (11-20 nM (1) or 30-59 nM (2) (++))	+++ (21-30 nM (1) or 60-90 nM (2) (+++))	+++ (21-30 nM (1) or 60-90 nM (2) (+++))	
PRIRTVGPSSRSASGKLTCLASYCWLFWTGIA	(++++) ((++++)>3)	+ (1-10 nM (1) or 1-29 nM (2) (+))	++ (11-20 nM (1) or 30-59 nM (2) (++))	++ (11-20 nM (1) or 30-59 nM (2) (++))	
SRSRTVSPGSRSASGKSTCLASYCWLFWTGIA	(++++) ((++++)>3)				Thrombin Above Baseline (nM) [1, 4]: +++ (21-30 nM (1) or 60-90 nM (2) (+++)); Thrombin Above Baseline (nM) [1, 5]: ++++ (>30 nM (1) or >90 nM (2) (++++)); Thrombin Above Baseline (nM) [1, 6]: ++++ (>30 nM (1) or >90 nM (2) (++++))
PRIrTVGPGSrSASGKLTCLASYCWLFWTGIA [Compound 23]	(++++) ((++++)>3)				Clotting time, sec (avg.) ([2]; 2.5 μM): 983 s; α-angle, degrees (avg.) ([2]; 2.5 μM): 13 degrees; Clotting time, sec (avg.) ([2]; 5 μM): 673 s; α-angle, degrees (avg.) ([2]; 5 μM): 22 degrees; Clotting time, sec (avg.) ([2]; 10 μM): 486 s; α-angle, degrees (avg.) ([2]; 10 μM): 32 degrees; Clotting time, sec (avg.) ([2]; 20 μM): 472 s; α-angle, degrees (avg.) ([2]; 20 μM): 39 degrees
PRIRTVGSGSRSASGKLTCLASYCWLFWTGIA	(++++) ((++++)>3)	+ (1-10 nM (1) or 1-29 nM (2) (+))	+ (1-10 nM (1) or 1-29 nM (2) (+))	+ (1-10 nM (1) or 1-29 nM (2) (+))	
SRIRTVGPGSRSASGKLTCLASYCWLFWTGIA	(++++) ((++++)>3)	++ (11-20 nM (1) or 30-59 nM (2) (++))	+++ (21-30 nM (1) or 60-90 nM (2) (+++))	++++ (>30 nM (1) or >90 nM (2) (++++))	
